Source: the NIST ThermoML archive (doi:10.1016/j.jct.2007.09.004)
± gives the expanded uncertainty stated by the source.

How the values were obtained:
[1] = relative permittivity at zero frequency (dimensionless); xn = mol fraction of the nth substance listed; conditions: 101 kPa, Liquid, Parallel plate capacitor
[2] = xn = mol fraction of the nth substance listed; conditions: 101 kPa, Liquid

In the case of CCCOCCO [2-propoxyethanol] + OCCOCCO, the “relative permittivity at zero frequency” value ([1]; 293.15 K, x1 = 0.0435) is reported as 31.3 ± 0.04, the “relative permittivity at zero frequency” value ([1]; 293.15 K, x1 = 0.0998) is reported as 30.58 ± 0.04 and the “relative permittivity at zero frequency” value ([1]; 293.15 K, x1 = 0.197) is reported as 29.18 ± 0.04. For the same molecule, the “relative permittivity at zero frequency” value ([1]; 293.15 K, x1 = 0.2962) was 27.57 ± 0.04, the “relative permittivity at zero frequency” value ([1]; 293.15 K, x1 = 0.3996) was 25.72 ± 0.04 and the “relative permittivity at zero frequency” value ([1]; 293.15 K, x1 = 0.4964) was 23.82 ± 0.04. For the same molecule, the “relative permittivity at zero frequency” value ([1]; 293.15 K, x1 = 0.5955) was 21.73 ± 0.04, the “relative permittivity at zero frequency” value ([1]; 293.15 K, x1 = 0.6996) was 19.43 ± 0.04 and the “relative permittivity at zero frequency” value ([1]; 293.15 K, x1 = 0.8001) was 17.06 ± 0.04. The “relative permittivity at zero frequency” value ([1]; 293.15 K, x1 = 0.8999) was 14.55 ± 0.04, the “relative permittivity at zero frequency” value ([1]; 293.15 K, x1 = 0.9499) was 13.2 ± 0.04 and the “relative permittivity at zero frequency” value ([1]; 293.15 K, x1 = 1) was 11.76 ± 0.04. The “relative permittivity at zero frequency” value ([1]; 298.15 K, x1 = 0.0435) was 30.42 ± 0.04, the “relative permittivity at zero frequency” value ([1]; 298.15 K, x1 = 0.0998) was 29.69 ± 0.04 and the “relative permittivity at zero frequency” value ([1]; 298.15 K, x1 = 0.197) was 28.31 ± 0.04. The “relative permittivity at zero frequency” value ([1]; 298.15 K, x1 = 0.2962) was 26.74 ± 0.04, the “relative permittivity at zero frequency” value ([1]; 298.15 K, x1 = 0.3996) was 24.95 ± 0.04 and the “relative permittivity at zero frequency” value ([1]; 298.15 K, x1 = 0.4964) was 23.13 ± 0.04. For the same molecule, the “relative permittivity at zero frequency” value ([1]; 298.15 K, x1 = 0.5955) was 21.13 ± 0.04, the “relative permittivity at zero frequency” value ([1]; 298.15 K, x1 = 0.6996) was 18.88 ± 0.04 and the “relative permittivity at zero frequency” value ([1]; 298.15 K, x1 = 0.8001) was 16.58 ± 0.04. The “relative permittivity at zero frequency” value ([1]; 298.15 K, x1 = 0.8999) was 14.13 ± 0.04, the “relative permittivity at zero frequency” value ([1]; 298.15 K, x1 = 0.9499) was 12.83 ± 0.04 and the “relative permittivity at zero frequency” value ([1]; 298.15 K, x1 = 1) was 11.5 ± 0.04. The “relative permittivity at zero frequency” value ([1]; 303.15 K, x1 = 0.0435) was 29.5 ± 0.04, the “relative permittivity at zero frequency” value ([1]; 303.15 K, x1 = 0.0998) was 28.76 ± 0.04 and the “relative permittivity at zero frequency” value ([1]; 303.15 K, x1 = 0.197) was 27.4 ± 0.04. The “relative permittivity at zero frequency” value ([1]; 303.15 K, x1 = 0.2962) was 25.88 ± 0.04, the “relative permittivity at zero frequency” value ([1]; 303.15 K, x1 = 0.3996) was 24.14 ± 0.04 and the “relative permittivity at zero frequency” value ([1]; 303.15 K, x1 = 0.4964) was 22.39 ± 0.04. For the same molecule, the “relative permittivity at zero frequency” value ([1]; 303.15 K, x1 = 0.5955) was 20.46 ± 0.04, the “relative permittivity at zero frequency” value ([1]; 303.15 K, x1 = 0.6996) was 18.29 ± 0.04 and the “relative permittivity at zero frequency” value ([1]; 303.15 K, x1 = 0.8001) was 16.06 ± 0.04. For the same molecule, the “relative permittivity at zero frequency” value ([1]; 303.15 K, x1 = 0.8999) was 13.7 ± 0.04, the “relative permittivity at zero frequency” value ([1]; 303.15 K, x1 = 0.9499) was 12.46 ± 0.04 and the “relative permittivity at zero frequency” value ([1]; 303.15 K, x1 = 1) was 11.19 ± 0.04. It also gave a mass density ([2]; 293.15 K, x1 = 0.0436) of 1106.38 ± 1.7 kg/m3, a mass density ([2]; 293.15 K, x1 = 0.1) of 1093.5 ± 1.6 kg/m3 and a mass density ([2]; 293.15 K, x1 = 0.2007) of 1071 ± 1.6 kg/m3. It also gave a mass density ([2]; 293.15 K, x1 = 0.2997) of 1049.58 ± 1.6 kg/m3, a mass density ([2]; 293.15 K, x1 = 0.3999) of 1028.62 ± 1.6 kg/m3 and a mass density ([2]; 293.15 K, x1 = 0.4968) of 1008.87 ± 1.5 kg/m3. It also gave a mass density ([2]; 293.15 K, x1 = 0.6002) of 988.3 ± 1.5 kg/m3, a mass density ([2]; 293.15 K, x1 = 0.6985) of 969.23 ± 1.5 kg/m3 and a mass density ([2]; 293.15 K, x1 = 0.7998) of 950.04 ± 1.4 kg/m3. For the same molecule, the mass density ([2]; 293.15 K, x1 = 0.8992) was 931.65 ± 1.4 kg/m3, the mass density ([2]; 293.15 K, x1 = 0.9499) was 922.4 ± 1.4 kg/m3 and the mass density ([2]; 293.15 K, x1 = 1) was 913.31 ± 1.4 kg/m3. It also gave a mass density ([2]; 298.15 K, x1 = 0.0436) of 1102.72 ± 1.7 kg/m3, a mass density ([2]; 298.15 K, x1 = 0.1) of 1089.56 ± 1.7 kg/m3 and a mass density ([2]; 298.15 K, x1 = 0.2007) of 1066.79 ± 1.7 kg/m3. For the same molecule, the mass density ([2]; 298.15 K, x1 = 0.2997) was 1045.22 ± 1.6 kg/m3, the mass density ([2]; 298.15 K, x1 = 0.3999) was 1024.11 ± 1.6 kg/m3 and the mass density ([2]; 298.15 K, x1 = 0.4968) was 1004.21 ± 1.6 kg/m3. For the same molecule, the mass density ([2]; 298.15 K, x1 = 0.6002) was 983.48 ± 1.6 kg/m3, the mass density ([2]; 298.15 K, x1 = 0.6985) was 964.21 ± 1.5 kg/m3 and the mass density ([2]; 298.15 K, x1 = 0.7998) was 944.82 ± 1.5 kg/m3. It also gave a mass density ([2]; 298.15 K, x1 = 0.8992) of 926.35 ± 1.5 kg/m3, a mass density ([2]; 298.15 K, x1 = 0.9499) of 917.14 ± 1.5 kg/m3 and a mass density ([2]; 298.15 K, x1 = 1) of 908.19 ± 1.5 kg/m3. The mass density ([2]; 303.15 K, x1 = 0.0436) was 1098.89 ± 1.8 kg/m3, the mass density ([2]; 303.15 K, x1 = 0.1) was 1085.52 ± 1.8 kg/m3 and the mass density ([2]; 303.15 K, x1 = 0.2007) was 1062.47 ± 1.7 kg/m3. For the same molecule, the mass density ([2]; 303.15 K, x1 = 0.2997) was 1040.76 ± 1.7 kg/m3, the mass density ([2]; 303.15 K, x1 = 0.3999) was 1019.56 ± 1.7 kg/m3 and the mass density ([2]; 303.15 K, x1 = 0.4968) was 999.53 ± 1.6 kg/m3. The mass density ([2]; 303.15 K, x1 = 0.6002) was 978.63 ± 1.6 kg/m3, the mass density ([2]; 303.15 K, x1 = 0.6985) was 959.16 ± 1.6 kg/m3 and the mass density ([2]; 303.15 K, x1 = 0.7998) was 939.65 ± 1.6 kg/m3. It also gave a mass density ([2]; 303.15 K, x1 = 0.8992) of 921.14 ± 1.5 kg/m3, a mass density ([2]; 303.15 K, x1 = 0.9499) of 911.97 ± 1.5 kg/m3 and a mass density ([2]; 303.15 K, x1 = 1) of 903.11 ± 1.5 kg/m3.
